Read-outs that look alike come from different tables or passages of the source.
What was measured:
[1] = in vivo studies; cited from earlier work
HEK-293 cells = format: cell-based, Human; conditions: for change in cell viability: 2 h of 40 °C/UV 254 nm; for toxicity enhanced: co-treatment with UV 365 nm and 40 °C; for more cell death after exposing herbicide to 40 °C for 2 h: herbicide at LD50, no UV, compared with 4 °C and RT groups, 24-h cell exposure; for increased toxicity: vs no UV
[2] = outdoor aquatic mesocosms, at 25 ng mL^−1; cited from earlier work
isolated rat hepatocytes = conditions: rats and dogs, 100–200 μmole L-1 for 2–4 h; cited from earlier work
[3] = format: cell-based, Human; conditions: human, HEK-293 cells, relative cell viability, 4 °C/No UV = 100 %
[4] = cited from earlier work

SMILES | LD50 (NIH TOXNET) [1] [mg/kg] | change in cell viability (HEK-293 cells) | half-life [2] [days] | viability at 24 h ([3]; 40 °C/No UV 2 h) [%] | viability at 24 h ([3]; 40 °C/UV 254 nm 2 h) [%] | viability at 24 h ([3]; 40 °C/UV 365 nm 2 h) [%] | toxicity enhanced (HEK-293 cells) [%] | more cell death after exposing herbicide to 40 °C for 2 h (HEK-293 cells) | also measured
CCNc1nc(Cl)nc(NCC)n1 [Simazine, simazine] | > 5000 |  |  |  |  |  |  |  | 
CCc1cccc(C)c1N(C(=O)CCl)C(C)COC (stereo not shown) [Metolachlor, metolachlor] |  | no further changes | 33.8 |  |  |  |  |  | differences in cell viability responses between 4 °C, 23 °C and 40 °C groups (HEK-293 cells; UV 254 nm and UV 365 nm for 2 h): no differences; temperature effect on herbicide-triggered cytotoxicity (HEK-293 cells; herbicide at LD50 kept 2 h at 4, 23 or 40 °C, no UV, 4 °C group as control): no further effect; UV effect on cytotoxicity (HEK-293 cells; no UV, UV 254 nm and UV 365 nm groups, 2 h at 4 °C): no further change; hepatotoxicity (isolated rat hepatocytes): not
CCOCN(C(=O)CCl)c1c(C)cccc1CC [Acetochlor, acetochlor] |  |  |  | 56.6 | 163 | 45.1 | 55 | about 45% | 
CCc1cccc(CC)c1N(COC)C(=O)CCl [Alachlor, alachlor] |  | no further changes | 19.8 | 54.1 | 87.9 | 19.2 | 80 | about 45% | increased toxicity (HEK-293 cells; herbicide exposed to UV 254 nm 2 h at 4 °C): 40%; increased toxicity (HEK-293 cells; herbicide exposed to UV 365 nm 2 h at 4 °C): 24%
CCNc1nc(Cl)nc(NC(C)C)n1 [Atrazine, atrazine] |  |  |  |  |  |  |  |  | half-life ([4]; aerobic condition): about 150 days; half-life ([4]; anaerobic condition): more than 2 years; half-life ([4]; in soil): up to 6 months
CC(C)Nc1nc(Cl)nc(NC(C)C)n1 [Propazine, propazine] | > 5000 |  |  |  |  |  |  |  | 

— paper PMC8461356 (Heliyon, 2021)
